Results taken from US5962471A, “Substituted 6- and 7-aminotetrahydroisoquinolinecarboxylic acids” (Hoechst Aktiengesellschaft, priority 1997, dated 1999).

Key:
[1] = target: T1, human stromelysin (MMP-3) (Homo sapiens, UniProt P08254); assay: inhibition of the catalytic domain of human stromelysin (MMP-3), fluorogenic substrate; format: biochemical
T1 construct: catalytic domains of human stromelysin and of neutrophil collagenase; made in house
Experimental: (§1) Preparation and determination of the enzymatic activity of the catalytic domains of human stromelysin and of neutrophil collagenase.
(§2) The two enzymes--stromelysin (MMP-3) and neutrophil collagenase (MMP-8)--were prepared according to Ye et al., Biochemistry, vol. […] To measure the enzyme activity or the enzyme inhibitor action, 70 μl of buffer solution and 10 μl of enzyme solution are incubated for 15 minutes with 10 μl of a 10% strength (v/v) aqueous dimethyl sulfoxide solution, which optionally contains the enzyme inhibitor.
(§3) The buffer solution contains 0.05% Brij (Sigma, Deisenhofen, Germany) and also 0.1 mol/l tris/HCl, 0.1 mol/l NaCl, 0.01 mol/l CaCl2 and 0.1 mol/l piperazine-N,N'-bis[2-ethanesulfonic acid] (pH=6.5). The enzyme solution contains 5 μg/ml of one of the enzyme domains prepared according to Ye et al. The substrate solution contains 1 mmol/l of the fluorogen ic substrate (7-methoxycoumarin4-yl)acetyl-Pro-Leu-Gly-Leu-3-(2',4'-dinitrophenyl)-L-2,3-diaminopropionyl-Ala-Arg-NH2 (Bachem, Heidelberg, Germany).
(§4) The enzyme activity is shown as the extinction increase/minute.

[2] = tested on: neutrophil collagenase (MMP-8); assay: inhibition of the catalytic domain of neutrophil collagenase (MMP-8), fluorogenic substrate; format: biochemical, human; conditions: fluorescence 328 nm (ex)/393 nm (em), pH=6.5, 15 min preincubation
Experimental: as §1, §2, §3, §4

T1 sequence (P08254 100-273 limits assumed): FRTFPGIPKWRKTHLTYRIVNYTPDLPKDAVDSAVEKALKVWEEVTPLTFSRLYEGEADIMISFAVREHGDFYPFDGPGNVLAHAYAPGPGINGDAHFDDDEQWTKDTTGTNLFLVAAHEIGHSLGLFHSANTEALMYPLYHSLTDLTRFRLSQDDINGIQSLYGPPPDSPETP

Row | Structure (SMILES) | IC50 [1] | IC50 [2]
1 | COc1ccc(S(=O)(=O)N2Cc3cc(N)ccc3C[C@@H]2C(=O)NO)cc1 [Example 10, 2-(4-Methoxybenzenesulfonyl)-7-amino-1,2,3,4-tetrahydroisoquinoline-(R)-3-(N-hydroxy)carboxamide] | 10 nM | –
2 | COc1ccc(S(=O)(=O)N2Cc3cc(NC(=O)OC(C)(C)C)ccc3C[C@@H]2C(=O)NO)cc1 [Example 11] | 20 nM | 3 nM
3 | O=C(O)[C@H]1Cc2ccc([N+](=O)[O-])cc2CN1S(=O)(=O)c1ccc(-c2ccc(Cl)cc2)cc1 [Example 15] | – | 30 nM
4 | O=C(O)[C@H]1Cc2cc([N+](=O)[O-])ccc2CN1S(=O)(=O)c1ccc(-c2ccc(Cl)cc2)cc1 [Example 16] | – | 20 nM
5 | O=C(O)[C@H]1Cc2ccc([N+](=O)[O-])cc2CN1S(=O)(=O)c1ccc(-c2ccc(F)cc2)cc1 [Example 17] | – | 40 nM
6 | O=C(O)[C@H]1Cc2cc([N+](=O)[O-])ccc2CN1S(=O)(=O)c1ccc(-c2ccc(F)cc2)cc1 [Example 18] | – | 20 nM
7 | CC(C)(C)OC(=O)Nc1ccc2c(c1)CN(S(=O)(=O)c1ccc(-c3ccc(F)cc3)cc1)[C@@H](C(=O)O)C2 [Example 20] | 2000 nM | 100 nM
8 | Nc1ccc2c(c1)C[C@H](C(=O)O)N(S(=O)(=O)c1ccc(-c3ccc(F)cc3)cc1)C2 [Example 21] | 200 nM | 8 nM
9 | Nc1ccc2c(c1)CN(S(=O)(=O)c1ccc(-c3ccc(F)cc3)cc1)[C@@H](C(=O)O)C2 [Example 22] | 300 nM | 8 nM
10 | C[C@H](NC(=O)OCc1ccccc1)C(=O)Nc1ccc2c(c1)CN(S(=O)(=O)c1ccc(-c3ccc(Cl)cc3)cc1)[C@@H](C(=O)O)C2 [Example 24] | 300 nM | 60 nM
11 | CC(N)C(=O)Nc1ccc2c(c1)CN(S(=O)(=O)c1ccc(-c3ccc(Cl)cc3)cc1)[C@@H](C(=O)O)C2 (some centres unmarked) [Example 25] | 200 nM | 10 nM
12 | CC(C)(C)OC(=O)Nc1ccc2c(c1)CN(S(=O)(=O)c1ccc(-c3ccc(F)cc3)cc1)[C@@H](C(=O)NO)C2 [Example 27] | 100 nM | 10 nM
13 | Nc1ccc2c(c1)CN(S(=O)(=O)c1ccc(-c3ccc(F)cc3)cc1)[C@@H](C(=O)NO)C2 [Example 28] | 20 nM | 2 nM
14 | COc1ccc(S(=O)(=O)N2Cc3cc(NC(=O)[C@H](C)N)ccc3C[C@@H]2C(=O)NO)cc1 [Example 30] | 30 nM | –
15 | COc1ccc(S(=O)(=O)N2Cc3cc(NC(=O)CCC(=O)O)ccc3C[C@@H]2C(=O)NO)cc1 [Example 31] | 20 nM | 4 nM
16 | COc1ccc(S(=O)(=O)N2Cc3cc(NC(=O)[C@H](CC(=O)OC(C)(C)C)NC(=O)OCc4ccccc4)ccc3C[C@@H]2C(=O)NO)cc1 [Example 32] | 400 nM | 10 nM
